Laboratory results taken from the supplement of paper PMC6045584.
± gives the standard deviation of the averaged measurements.

Tests used:
EVEROLIMUS = compound: CO[C@H]1C[C@@H]2CC[C@@H](C)[C@@](O)(O2)C(=O)C(=O)N2CCCC[C@H]2C(=O)O[C@H]([C@H](C)C[C@@H]2CC[C@@H](OCCO)[C@H](OC)C2)CC(=O)[C@H](C)/C=C(\C)[C@@H](O)[C@@H](OC)C(=O)[C@H](C)C[C@H](C)/C=C/C=C/C=C/1C [EVEROLIMUS]; test: surviving fraction relative to DMSO-only wells; higher = less growth inhibition; conditions: exposure time: 5 days
In short: (§1)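 Viability values are CellTiter-Glo luminescence readings, given as surviving fraction against the median of DMSO-only wells. The readings were taken after 10 minutes at room temperature, following five days of continuous exposure to inhibitors at 0.5, 1, 5, 10, 50, 100, 500 and 1000 nM that began 24 hours after log-phase tumour cell lines were seeded at 250–500 cells per well in 384-well plates. Every line was screened three times and kept only if replicate Pearson r >0.7 and median Z' >0.3.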

[1] = compound: Cc1nc(Nc2n[nH]c3c2CN(C(=O)N[C@H](CN(C)C)c2ccccc2)C3(C)C)c2sccc2n1; test: as above; conditions: exposure time: 5 days
In short: as §1

22RV1 PROSTATE
surviving fraction (EVEROLIMUS; 0.5 nM): 0.788 ± 0.065 | surviving fraction (EVEROLIMUS; 1 nM): 0.588 ± 0.14 | surviving fraction (EVEROLIMUS; 5 nM): 0.452 ± 0.043 | surviving fraction (EVEROLIMUS; 10 nM): 0.375 ± 0.031 | surviving fraction (EVEROLIMUS; 50 nM): 0.515 ± 0.24 | surviving fraction (EVEROLIMUS; 100 nM): 0.374 ± 0.032 | surviving fraction (EVEROLIMUS; 500 nM): 0.365 ± 0.061 | surviving fraction (EVEROLIMUS; 1000 nM): 0.375 ± 0.028 | surviving fraction ([1]; 0.5 nM): 0.963 ± 0.14 | surviving fraction ([1]; 1 nM): 0.783 ± 0.078 | surviving fraction ([1]; 5 nM): 0.334 ± 0.035 | surviving fraction ([1]; 10 nM): 0.321 ± 0.051 | surviving fraction ([1]; 50 nM): 0.348 ± 0.018 | surviving fraction ([1]; 100 nM): 0.313 ± 0.058 | surviving fraction ([1]; 500 nM): 0.291 ± 0.058 | surviving fraction ([1]; 1000 nM): 0.27 ± 0.025

93VU HEADNECK
surviving fraction (EVEROLIMUS; 0.5 nM): 0.953 ± 0.098 | surviving fraction (EVEROLIMUS; 1 nM): 0.905 ± 0.076 | surviving fraction (EVEROLIMUS; 5 nM): 0.865 ± 0.024 | surviving fraction (EVEROLIMUS; 10 nM): 0.841 ± 0.065 | surviving fraction (EVEROLIMUS; 50 nM): 0.85 ± 0.051 | surviving fraction (EVEROLIMUS; 100 nM): 0.767 ± 0.11 | surviving fraction (EVEROLIMUS; 500 nM): 0.706 ± 0.027 | surviving fraction (EVEROLIMUS; 1000 nM): 0.649 ± 0.049 | surviving fraction ([1]; 0.5 nM): 1.01 ± 0.12 | surviving fraction ([1]; 1 nM): 0.883 ± 0.045 | surviving fraction ([1]; 5 nM): 0.39 ± 0.012 | surviving fraction ([1]; 10 nM): 0.298 ± 0.044 | surviving fraction ([1]; 50 nM): 0.24 ± 0.018 | surviving fraction ([1]; 100 nM): 0.195 ± 0.0078 | surviving fraction ([1]; 500 nM): 0.0973 ± 0.013 | surviving fraction ([1]; 1000 nM): 0.0723 ± 0.0095

143B BONE
surviving fraction (EVEROLIMUS; 0.5 nM): 0.954 ± 0.032 | surviving fraction (EVEROLIMUS; 1 nM): 0.948 ± 0.022 | surviving fraction (EVEROLIMUS; 5 nM): 0.846 ± 0.03 | surviving fraction (EVEROLIMUS; 10 nM): 0.824 ± 0.018 | surviving fraction (EVEROLIMUS; 50 nM): 0.8355 ± 0.00071 | surviving fraction (EVEROLIMUS; 100 nM): 0.825 ± 0.029 | surviving fraction (EVEROLIMUS; 500 nM): 0.793 ± 0.057 | surviving fraction (EVEROLIMUS; 1000 nM): 0.827 ± 0.096 | surviving fraction ([1]; 0.5 nM): 0.96 ± 0.021 | surviving fraction ([1]; 1 nM): 0.969 ± 0.015 | surviving fraction ([1]; 5 nM): 0.726 ± 0.032 | surviving fraction ([1]; 10 nM): 0.494 ± 0.011 | surviving fraction ([1]; 50 nM): 0.293 ± 0.033 | surviving fraction ([1]; 100 nM): 0.259 ± 0.016 | surviving fraction ([1]; 500 nM): 0.158 ± 0.0042 | surviving fraction ([1]; 1000 nM): 0.0825 ± 0.0035

A549 LUNG
surviving fraction (EVEROLIMUS; 0.5 nM): 0.962 ± 0.022 | surviving fraction (EVEROLIMUS; 1 nM): 0.927 ± 0.018 | surviving fraction (EVEROLIMUS; 5 nM): 0.8767 ± 0.0076 | surviving fraction (EVEROLIMUS; 10 nM): 0.842 ± 0.017 | surviving fraction (EVEROLIMUS; 50 nM): 0.855 ± 0.041 | surviving fraction (EVEROLIMUS; 100 nM): 0.826 ± 0.048 | surviving fraction (EVEROLIMUS; 500 nM): 0.777 ± 0.0096 | surviving fraction (EVEROLIMUS; 1000 nM): 0.759 ± 0.058 | surviving fraction ([1]; 0.5 nM): 1.03 ± 0.051 | surviving fraction ([1]; 1 nM): 0.952 ± 0.064 | surviving fraction ([1]; 5 nM): 0.988 ± 0.064 | surviving fraction ([1]; 10 nM): 0.578 ± 0.021 | surviving fraction ([1]; 50 nM): 0.38 ± 0.033 | surviving fraction ([1]; 100 nM): 0.311 ± 0.022 | surviving fraction ([1]; 500 nM): 0.2537 ± 0.0015 | surviving fraction ([1]; 1000 nM): 0.208 ± 0.011

ASKA SYNOVIAL
surviving fraction (EVEROLIMUS; 0.5 nM): 1 ± 0.077 | surviving fraction (EVEROLIMUS; 1 nM): 0.93 ± 0.1 | surviving fraction (EVEROLIMUS; 5 nM): 0.787 ± 0.085 | surviving fraction (EVEROLIMUS; 10 nM): 0.62 ± 0.049 | surviving fraction (EVEROLIMUS; 50 nM): 0.612 ± 0.022 | surviving fraction (EVEROLIMUS; 100 nM): 0.576 ± 0.051 | surviving fraction (EVEROLIMUS; 500 nM): 0.531 ± 0.036 | surviving fraction (EVEROLIMUS; 1000 nM): 0.577 ± 0.04 | surviving fraction ([1]; 0.5 nM): 0.673 ± 0.043 | surviving fraction ([1]; 1 nM): 1.09 ± 0.022 | surviving fraction ([1]; 5 nM): 0.4283 ± 0.0031 | surviving fraction ([1]; 10 nM): 1.16 ± 0.16 | surviving fraction ([1]; 50 nM): 0.43 ± 0.027 | surviving fraction ([1]; 100 nM): 1.28 ± 0.018 | surviving fraction ([1]; 500 nM): 0.3113 ± 0.0015 | surviving fraction ([1]; 1000 nM): 1.08 ± 0.051

BT20 BREAST
surviving fraction (EVEROLIMUS; 0.5 nM): 0.595 ± 0.042 | surviving fraction (EVEROLIMUS; 1 nM): 0.46 ± 0.037 | surviving fraction (EVEROLIMUS; 5 nM): 0.394 ± 0.041 | surviving fraction (EVEROLIMUS; 10 nM): 0.378 ± 0.042 | surviving fraction (EVEROLIMUS; 50 nM): 0.353 ± 0.015 | surviving fraction (EVEROLIMUS; 100 nM): 0.369 ± 0.02 | surviving fraction (EVEROLIMUS; 500 nM): 0.34 ± 0.018 | surviving fraction (EVEROLIMUS; 1000 nM): 0.374 ± 0.018 | surviving fraction ([1]; 0.5 nM): 1.21 ± 0.12 | surviving fraction ([1]; 1 nM): 1.11 ± 0.056 | surviving fraction ([1]; 5 nM): 1.34 ± 0.025 | surviving fraction ([1]; 10 nM): 1.28 ± 0.013 | surviving fraction ([1]; 50 nM): 0.841 ± 0.11 | surviving fraction ([1]; 100 nM): 0.631 ± 0.12 | surviving fraction ([1]; 500 nM): 0.614 ± 0.076 | surviving fraction ([1]; 1000 nM): 0.542 ± 0.062

BT549 BREAST
surviving fraction (EVEROLIMUS; 0.5 nM): 0.569 ± 0.026 | surviving fraction (EVEROLIMUS; 1 nM): 0.531 ± 0.061 | surviving fraction (EVEROLIMUS; 5 nM): 0.415 ± 0.032 | surviving fraction (EVEROLIMUS; 10 nM): 0.499 ± 0.079 | surviving fraction (EVEROLIMUS; 50 nM): 0.4507 ± 0.0023 | surviving fraction (EVEROLIMUS; 100 nM): 0.418 ± 0.05 | surviving fraction (EVEROLIMUS; 500 nM): 0.365 ± 0.017 | surviving fraction (EVEROLIMUS; 1000 nM): 0.356 ± 0.027 | surviving fraction ([1]; 0.5 nM): 1.02 ± 0.065 | surviving fraction ([1]; 1 nM): 0.928 ± 0.064 | surviving fraction ([1]; 5 nM): 0.299 ± 0.035 | surviving fraction ([1]; 10 nM): 0.232 ± 0.034 | surviving fraction ([1]; 50 nM): 0.0943 ± 0.0086 | surviving fraction ([1]; 100 nM): 0.092 ± 0.019 | surviving fraction ([1]; 500 nM): 0.0593 ± 0.012 | surviving fraction ([1]; 1000 nM): 0.052 ± 0.02

CADOES1 SOFT TISSUE
surviving fraction (EVEROLIMUS; 0.5 nM): 0.842 ± 0.1 | surviving fraction (EVEROLIMUS; 1 nM): 0.74 ± 0.072 | surviving fraction (EVEROLIMUS; 5 nM): 0.529 ± 0.052 | surviving fraction (EVEROLIMUS; 10 nM): 0.472 ± 0.11 | surviving fraction (EVEROLIMUS; 50 nM): 0.309 ± 0.036 | surviving fraction (EVEROLIMUS; 100 nM): 0.344 ± 0.098 | surviving fraction (EVEROLIMUS; 500 nM): 0.259 ± 0.017 | surviving fraction (EVEROLIMUS; 1000 nM): 0.268 ± 0.04 | surviving fraction ([1]; 0.5 nM): 0.919 ± 0.029 | surviving fraction ([1]; 1 nM): 0.865 ± 0.035 | surviving fraction ([1]; 5 nM): 0.953 ± 0.11 | surviving fraction ([1]; 10 nM): 0.957 ± 0.14 | surviving fraction ([1]; 50 nM): 0.764 ± 0.047 | surviving fraction ([1]; 100 nM): 0.721 ± 0.093 | surviving fraction ([1]; 500 nM): 0.401 ± 0.014 | surviving fraction ([1]; 1000 nM): 0.291 ± 0.026

CAL51 BREAST
surviving fraction (EVEROLIMUS; 0.5 nM): 0.684 ± 0.049 | surviving fraction (EVEROLIMUS; 1 nM): 0.527 ± 0.046 | surviving fraction (EVEROLIMUS; 5 nM): 0.406 ± 0.026 | surviving fraction (EVEROLIMUS; 10 nM): 0.376 ± 0.0096 | surviving fraction (EVEROLIMUS; 50 nM): 0.332 ± 0.029 | surviving fraction (EVEROLIMUS; 100 nM): 0.283 ± 0.011 | surviving fraction (EVEROLIMUS; 500 nM): 0.257 ± 0.039 | surviving fraction (EVEROLIMUS; 1000 nM): 0.26 ± 0.025 | surviving fraction ([1]; 0.5 nM): 0.898 ± 0.011 | surviving fraction ([1]; 1 nM): 0.765 ± 0.047 | surviving fraction ([1]; 5 nM): 0.281 ± 0.017 | surviving fraction ([1]; 10 nM): 0.181 ± 0.0083 | surviving fraction ([1]; 50 nM): 0.0752 ± 0.002 | surviving fraction ([1]; 100 nM): 0.0562 ± 0.0013 | surviving fraction ([1]; 500 nM): 0.0417 ± 0.0018 | surviving fraction ([1]; 1000 nM): 0.0317 ± 0.0014

CAL120 BREAST
surviving fraction (EVEROLIMUS; 0.5 nM): 0.707 ± 0.073 | surviving fraction (EVEROLIMUS; 1 nM): 0.602 ± 0.062 | surviving fraction (EVEROLIMUS; 5 nM): 0.501 ± 0.028 | surviving fraction (EVEROLIMUS; 10 nM): 0.486 ± 0.026 | surviving fraction (EVEROLIMUS; 50 nM): 0.463 ± 0.007 | surviving fraction (EVEROLIMUS; 100 nM): 0.45 ± 0.021 | surviving fraction (EVEROLIMUS; 500 nM): 0.424 ± 0.021 | surviving fraction (EVEROLIMUS; 1000 nM): 0.412 ± 0.0054 | surviving fraction ([1]; 0.5 nM): 0.904 ± 0.0095 | surviving fraction ([1]; 1 nM): 0.599 ± 0.021 | surviving fraction ([1]; 5 nM): 0.364 ± 0.019 | surviving fraction ([1]; 10 nM): 0.287 ± 0.0047 | surviving fraction ([1]; 50 nM): 0.242 ± 0.03 | surviving fraction ([1]; 100 nM): 0.223 ± 0.0029 | surviving fraction ([1]; 500 nM): 0.24 ± 0.028 | surviving fraction ([1]; 1000 nM): 0.151 ± 0.018
